From US9115101B2 (Genentech, Inc., priority 2012, dated 2015) come the findings set out here.

This assay concerns the target T1, RORc ligand binding domain (Homo sapiens, UniProt P51449).
T1 construct: host or cells: E. coli
T1 sequence (P51449 269-508 limits assumed): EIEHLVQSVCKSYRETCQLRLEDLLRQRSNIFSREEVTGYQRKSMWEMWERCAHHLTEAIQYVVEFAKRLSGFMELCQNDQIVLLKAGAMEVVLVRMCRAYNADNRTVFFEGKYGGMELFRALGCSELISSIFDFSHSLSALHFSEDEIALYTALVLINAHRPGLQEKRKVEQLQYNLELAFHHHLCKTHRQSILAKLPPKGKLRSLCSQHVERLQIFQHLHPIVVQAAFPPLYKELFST
The assay can be described thus: In Vitro RORc Ligand Binding Assay (25-[3H]hydroxycholesterol radioligand filtration). Particulars: read-out: RORc IC50.

Where [1] appears, read: In Vitro RORc Ligand Binding Assay, Table 4.

Like-named read-outs stand apart in the source and are kept apart here.

Regarding `C[C@H]1CCC(c2ccccc2)S(=O)(=O)N1Cc1ccc(C(=O)N2CCn3nccc3C2)cc1` (stereo partly drawn) [Example 373, (6,7-Dihydro-4H-pyrazolo[1,5-a]pyrazin-5-yl)-[4-((3S)-methyl-1,1-dioxo-6-phenyl-[1,2]thiazinan-2-ylmethyl)-phenyl]-methanone], the IC50 under setting [1] is 4360 nM.

On to `Cc1ncc2n1CCN(c1ccc(CN3[C@@H](C)CCC(c4ccccc4)S3(=O)=O)c(F)c1)C2` (stereo partly drawn) [Example 374, 7-[3-Fluoro-4-((3S)-methyl-1,1-dioxo-6-phenyl-[1,2]thiazinan-2-ylmethyl)-phenyl]-3-methyl-5,6,7,8-tetrahydro-imidazo[1,5-a]pyrazine], for which the IC50 under setting [1] is 166 nM.

For the compound `CC(=O)N1CCN(c2ccc(CN3[C@@H](C)CCC(c4ccccc4)S3(=O)=O)c(F)c2)C[C@@H]1C(N)=O` (stereo partly drawn) [Example 375, (R)-1-Acetyl-4-[3-fluoro-4-((3S)-methyl-1,1-dioxo-6-phenyl-[1,2]thiazinan-2-ylmethyl)-phenyl]-piperazine-2-carboxylic acid amide], the IC50 under setting [1] stood at 156 nM.

Take `CC(=O)N1CCN(c2ccc(CN3[C@@H](C)CCC(c4ccccc4)S3(=O)=O)c(F)c2)C[C@@H]1C#N` (stereo partly drawn) [Example 376, (R)-1-Acetyl-4-[3-fluoro-4-((3S)-methyl-1,1-dioxo-6-phenyl-[1,2]thiazinan-2-ylmethyl)-phenyl]-piperazine-2-carbonitrile]: the IC50 under setting [1] is 78 nM.

Regarding `CC(=O)N1CCN(c2ccc(CN3[C@@H](C)CCC(c4ccccc4)S3(=O)=O)c(F)c2)C[C@H]1C(=O)O` (stereo partly drawn) [Example 377, (S)-1-Acetyl-4-[3-fluoro-4-((3S)-methyl-1,1-dioxo-6-phenyl-[1,2]thiazinan-2-ylmethyl)-phenyl]-piperazine-2-carboxylic acid], the 50% inhibitory concentration (IC50) under setting [1] came to 1360 nM.

On to `CC(=O)N1CCN(c2ccc(CN3[C@@H](C)CCC(c4ccccc4)S3(=O)=O)c(F)c2)C[C@H]1CO` (stereo partly drawn) [Example 378, 1-{(S)-4-[3-Fluoro-4-((3S)-methyl-1,1-dioxo-6-phenyl-[1,2]thiazinan-2-ylmethyl)-phenyl]-2-hydroxymethyl-piperazin-1-yl}-ethanone], for which the IC50 under setting [1] was 61 nM.

For `CC(=O)N1CCN(c2ccc(CN3[C@@H](C)CCC(c4ccccc4)S3(=O)=O)c(F)c2)C[C@H]1C(=O)N(C)C` (stereo partly drawn) [Example 379, (S)-1-Acetyl-4-[3-fluoro-4-((3S)-methyl-1,1-dioxo-6-phenyl-[1,2]thiazinan-2-ylmethyl)-phenyl]-piperazine-2-carboxylic acid dimethylamide], under setting [1], the half-inhibitory concentration (IC50) was 882 nM.

Take `CNC(=O)[C@@H]1CN(c2ccc(CN3[C@@H](C)CCC(c4ccccc4)S3(=O)=O)c(F)c2)CCN1C(C)=O` (stereo partly drawn) [Example 380, (S)-1-Acetyl-4-[3-fluoro-4-((3S)-methyl-1,1-dioxo-6-phenyl-[1,2]thiazinan-2-ylmethyl)-phenyl]-piperazine-2-carboxylic acid methylamide]: the half-inhibitory concentration (IC50) under setting [1] was 138 nM.

For the compound `CC(=O)N1CCN(c2ccc(CN3[C@@H](C)CCC(c4ccccc4)S3(=O)=O)c(F)c2)C[C@H]1C(N)=O` (stereo partly drawn) [Example 381, (S)-1-Acetyl-4-[3-fluoro-4-((3S)-methyl-1,1-dioxo-6-phenyl-[1,2]thiazinan-2-ylmethyl)-phenyl]-piperazine-2-carboxylic acid amide], the IC50 under setting [1] stood at 522 nM.

Regarding `COC(=O)[C@@H]1CN(c2ccc(CN3[C@@H](C)CCC(c4ccccc4)S3(=O)=O)c(F)c2)CCN1C(C)=O` (stereo partly drawn) [Example 382, (S)-1-Acetyl-4-[3-fluoro-4-((3S)-methyl-1,1-dioxo-6-phenyl-[1,2]thiazinan-2-ylmethyl)-phenyl]-piperazine-2-carboxylic acid methyl ester], the concentration for half-maximal inhibition (IC50) under setting [1] turned out to be 34 nM.

On to `CNC(=O)[C@H]1CN(c2ccc(CN3[C@@H](C)CCC(c4ccccc4)S3(=O)=O)c(F)c2)CCN1C(C)=O` (stereo partly drawn) [Example 383, (R)-1-Acetyl-4-[3-fluoro-4-((3S)-methyl-1,1-dioxo-6-phenyl-[1,2]thiazinan-2-ylmethyl)-phenyl]-piperazine-2-carboxylic acid methylamide], for which, under setting [1], the IC50 stood at 705 nM.

Take `CC(=O)N1CCN(c2ccc(CN3[C@@H](C)CCC(c4ccccc4)S3(=O)=O)c(F)c2)C[C@@H]1C(=O)N(C)C` (stereo partly drawn) [Example 384, (R)-1-Acetyl-4-[3-fluoro-4-((3S)-methyl-1,1-dioxo-6-phenyl-[1,2]thiazinan-2-ylmethyl)-phenyl]-piperazine-2-carboxylic acid dimethylamide]: the IC50 under setting [1] was 1720 nM.

On to `CC(=O)N1CCN(c2ccc(CN3[C@@H](C)CCC(c4ccccc4)S3(=O)=O)c(F)c2)C[C@H]1C#N` (stereo partly drawn) [Example 385, (S)-1-Acetyl-4-[3-fluoro-4-((3S)-methyl-1,1-dioxo-6-phenyl-[1,2]thiazinan-2-ylmethyl)-phenyl]-piperazine-2-carbonitrile], for which the half-inhibitory concentration (IC50) under setting [1] was found to be 240 nM.

As for `C[C@H]1CCC(c2ccccc2)S(=O)(=O)N1Cc1ccc(C(=O)NC2CCS(=O)(=O)CC2)cc1` (stereo partly drawn) [Example 386, N-(1,1-Dioxo-hexahydro-1-thiopyran-4-yl)-4-((3S)-methyl-1,1-dioxo-6-phenyl-[1,2]thiazinan-2-ylmethyl)-benzamide], the IC50 under setting [1] came to 1490 nM.

In the case of `C[C@H]1CCC(c2ccccc2)S(=O)(=O)N1Cc1ccc(C(=O)NC2CN(S(C)(=O)=O)C2)cc1` (stereo partly drawn) [Example 387, N-(1-Methanesulfonyl-azetidin-3-yl)-4-((3S)-methyl-1,1-dioxo-6-phenyl-[1,2]thiazinan-2-ylmethyl)-benzamide], the IC50 under setting [1] is 607 nM.

Turning to `C[C@H]1CCC(c2ccccc2)S(=O)(=O)N1Cc1ccc(C(=O)N[C@@H]2CCN(S(C)(=O)=O)C2)cc1` (stereo partly drawn) [Example 388, N-((R)-1-Methanesulfonyl-pyrrolidin-3-yl)-4-((3S)-methyl-1,1-dioxo-6-phenyl-[1,2]thiazinan-2-ylmethyl)-benzamide], under setting [1], the IC50 stood at 3520 nM.

For `C[C@H]1CCC(c2ccccc2)S(=O)(=O)N1Cc1ccc(C(=O)NC2CCS(=O)(=O)C2)cc1` (stereo partly drawn) [Example 389, N-(1,1-Dioxo-tetrahydro-6-thiophen-3-yl)-4-((3S)-methyl-1,1-dioxo-6-phenyl-[1,2]thiazinan-2-ylmethyl)-benzamide], under setting [1], the IC50 is 3220 nM.

For `C[C@H]1CCC(c2ccccc2)S(=O)(=O)N1Cc1ccc(C(=O)NC2CN(C(N)=O)C2)cc1` (stereo partly drawn) [Example 390, 3-[4-((3S)-Methyl-1,1-dioxo-6-phenyl-[1,2]thiazinan-2-ylmethyl)-benzoylamino]-azetidine-1-carboxylic acid amide], the IC50 under setting [1] was found to be 5460 nM.

Regarding `C[C@H]1CCC(c2ccccc2)S(=O)(=O)N1Cc1ccc(C(=O)N[C@@H]2CCN(C(N)=O)C2)cc1` (stereo partly drawn) [Example 391, (R)-3-[4-((3S)-Methyl-1,1-dioxo-6-phenyl-[1,2]thiazinan-2-ylmethyl)-benzoylamino]-pyrrolidine-1-carboxylic acid amide], the IC50 under setting [1] worked out at 3430 nM.

Take `COC(=O)[C@@H]1CN(C(C)=O)CCN1c1ccc(CN2[C@@H](C)CCC(c3ccccc3)S2(=O)=O)c(F)c1` (stereo partly drawn) [Example 392, (S)-4-Acetyl-1-[3-fluoro-4-((3S)-methyl-1,1-dioxo-6-phenyl-[1,2]thiazinan-2-ylmethyl)-phenyl]-piperazine-2-carboxylic acid methyl ester]: the IC50 under setting [1] was 13 nM.

As for `COCCNC(=O)[C@@H]1CN(c2ccc(CN3[C@@H](C)CCC(c4ccccc4)S3(=O)=O)c(F)c2)CCN1C(C)=O` (stereo partly drawn) [Example 393, (S)-1-Acetyl-4-[3-fluoro-4-((3S)-methyl-1,1-dioxo-6-phenyl-[1,2]thiazinan-2-ylmethyl)-phenyl]-piperazine-2-carboxylic acid (2-methoxy-ethyl)-amide], the IC50 under setting [1] was found to be 697 nM.

`CC(=O)N1CCN(c2ccc(CN3[C@@H](C)CCC(c4ccccc4)S3(=O)=O)c(F)c2)C[C@H]1C(=O)NC(C)C` (stereo partly drawn) [Example 394, (S)-1-Acetyl-4-[3-fluoro-4-((3S)-methyl-1,1-dioxo-6-phenyl-[1,2]thiazinan-2-ylmethyl)-phenyl]-piperazine-2-carboxylic acid isopropylamide]: the IC50 under setting [1] was 3180 nM.

As to `CCCNC(=O)[C@@H]1CN(c2ccc(CN3[C@@H](C)CCC(c4ccccc4)S3(=O)=O)c(F)c2)CCN1C(C)=O` (stereo partly drawn) [Example 395, (S)-1-Acetyl-4-[3-fluoro-4-((3S)-methyl-1,1-dioxo-6-phenyl-[1,2]thiazinan-2-ylmethyl)-phenyl]-piperazine-2-carboxylic acid propylamide], the IC50 under setting [1] worked out at 287 nM.

For the compound `C[C@H]1CCC(c2ccccc2)S(=O)(=O)N1Cc1ccc(N2CCN3C(=O)CNC(=O)[C@H]3C2)cc1F` (stereo partly drawn) [Example 396, (R)-8-[3-Fluoro-4-((3S)-methyl-1,1-dioxo-6-phenyl-[1,2]thiazinan-2-ylmethyl)-phenyl]-hexahydro-pyrazino[1,2-a]pyrazine-1,4-dione], the IC50 under setting [1] amounted to 3250 nM.

In the case of `CCOC(=O)c1ncc2n1CCN(c1ccc(CN3[C@@H](C)CCC(c4ccccc4)S3(=O)=O)c(F)c1)C2` (stereo partly drawn) [Example 397, 7-[3-Fluoro-4-((3S)-methyl-1,1-dioxo-6-phenyl-[1,2]thiazinan-2-ylmethyl)-phenyl]-5,6,7,8-tetrahydro-imidazo[1,5-a]pyrazine-3-carboxylic acid ethyl ester], under setting [1], the IC50 is 872 nM.

Take `C[C@H]1CCC(c2ccccc2)S(=O)(=O)N1Cc1ccc(C(=O)N2CCS(=O)(=O)CC2)cc1` (stereo partly drawn) [Example 398, (1,1-Dioxo-1-thiomorpholin-4-yl)-[4-((3S)-methyl-1,1-dioxo-6-phenyl-[1,2]thiazinan-2-ylmethyl)-phenyl]-methanone]: the IC50 under setting [1] came to 5710 nM.

Take `CC(=O)N1CCN(c2ccc(CN3[C@@H](C)CCC(c4ccccc4)S3(=O)=O)c(F)c2)C[C@H]1C(=O)NCCO` (stereo partly drawn) [Example 399, (S)-1-Acetyl-4-[3-fluoro-4-((3S)-methyl-1,1-dioxo-6-phenyl-[1,2]thiazinan-2-ylmethyl)-phenyl]-piperazine-2-carboxylic acid (2-hydroxy-ethyl)-amide]: the IC50 was found to be 1590 nM.

What is called IC50 is the concentration at which inhibition is half-maximal.
